System: RAF1
Assay: RAF1 protein expression, western blot
Type: cell-based, human
Conditions: in cells
Protocol: Fig. 6 KBU2046-mediated changes in the signature of client proteins bound to the HSP90β/CDC37 heterocomplex mediate effects upon cell motility. a LUMIER assay. HEK293T cells were transfected with 1 of 420 different protein kinases, treated with 10 µM KBU2046 (N = 5 replicates) or vehicle control (N = 5) for 3 days, and LUMIER assays performed. The N = 17 kinases that gave significant findings (Student’s t-test <0.05) in the same direction in each of two separate experiments are depicted. […] All experiments were repeated at separate times at least once, with similar results
Western blots were performed as described by us[32]. All western blots were repeated at least once. Uncropped scans of the most important blots are depicted in Supplementary Fig. 19.

O=C1c2ccccc2OCC1c1ccc(F)cc1 (racemic) [KBU2046, (±)-3(4-fluorophenyl)chroman-4-one]
RAF1 protein expression levels: did not alter RAF1 protein expression levels
